Results reported in ChEMBL document CHEMBL3997763 (Medchemcomm, 2016).
Calls of active or inactive are those of the source. The rule behind the calls is not given here.

Legend:
[1] = system: Rattus norvegicus; assay: Hypolipidemic activity in HFD-induced Charles Foster rat assessed as reduction in serum LDL-TC at 100 mg/kg administered as single dose via oral gavage for 30 days simultaneously with high fat diet; format: functional, organism-based
[2] = molecular target: T1, 3-hydroxy-3-methylglutaryl-coenzyme A reductase (Homo sapiens) (UniProt P04035); assay: Inhibition of human HMG-CoA reductase catalytic domain using HMG-CoA as substrate in presence of NADPH by colorimetric method
T1 sequence (whole entry): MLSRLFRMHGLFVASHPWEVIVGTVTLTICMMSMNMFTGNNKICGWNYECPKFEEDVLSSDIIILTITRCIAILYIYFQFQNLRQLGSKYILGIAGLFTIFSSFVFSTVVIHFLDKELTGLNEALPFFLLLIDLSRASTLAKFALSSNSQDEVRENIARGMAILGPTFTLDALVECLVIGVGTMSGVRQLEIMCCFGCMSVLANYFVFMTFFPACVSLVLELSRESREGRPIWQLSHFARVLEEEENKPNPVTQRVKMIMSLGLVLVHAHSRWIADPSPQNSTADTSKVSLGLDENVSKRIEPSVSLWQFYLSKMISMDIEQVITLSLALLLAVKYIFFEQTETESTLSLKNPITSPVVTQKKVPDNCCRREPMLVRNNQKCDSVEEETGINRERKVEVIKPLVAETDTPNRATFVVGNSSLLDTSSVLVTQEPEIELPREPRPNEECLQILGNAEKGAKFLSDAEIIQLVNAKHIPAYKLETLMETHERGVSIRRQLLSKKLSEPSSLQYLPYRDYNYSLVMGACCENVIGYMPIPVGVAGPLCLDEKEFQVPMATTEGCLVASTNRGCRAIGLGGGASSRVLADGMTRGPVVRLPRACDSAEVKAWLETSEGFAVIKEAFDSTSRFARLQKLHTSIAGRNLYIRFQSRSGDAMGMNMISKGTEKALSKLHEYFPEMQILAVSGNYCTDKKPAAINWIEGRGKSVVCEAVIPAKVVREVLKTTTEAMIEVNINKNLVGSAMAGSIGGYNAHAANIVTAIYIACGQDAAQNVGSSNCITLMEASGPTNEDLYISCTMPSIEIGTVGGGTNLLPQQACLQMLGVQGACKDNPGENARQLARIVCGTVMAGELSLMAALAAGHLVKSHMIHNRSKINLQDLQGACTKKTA

[3] = system: Rattus norvegicus; assay: Antihyperlipidemic activity in triton WR-1339 induced Charles Foster rat hyperlipidemia model assessed as inhibition of triglyceride level in serum at 150 mg/kg, po administered simultaneously with triton WR-1339 after 18 hrs by enzymatic method relative to control; format: functional
[4] = system: Liver; assay: Stability in Sprague-Dawley rat liver microsomes at 10 uM in absence of NADPH after 5 to 90 mins by LC-MS/MS analysis; format: ADME, microsome
[5] = system: Rattus norvegicus; assay: Increase in phospholipid level in serum of triton WR-1339 induced Charles Foster rat hyperlipidemia model at 50 mg/kg, po administered simultaneously with triton WR-1339 after 18 hrs by enzymatic method relative to control; format: functional
[6] = molecular target: T1, 3-hydroxy-3-methylglutaryl-coenzyme A reductase (Homo sapiens); assay: Inhibition of human HMG-CoA reductase catalytic domain at 20 uM using HMG-CoA as substrate in presence of NADPH by colorimetric method relative to control
[7] = system: Rattus norvegicus; assay: Hypolipidemic activity in HFD-induced Charles Foster rat assessed as increase in lipolytic activity of LPL in liver at 100 mg/kg administered as single dose via oral gavage for 30 days simultaneously with high fat diet; format: functional, organism-based

inhibition [2]: Dose-dependent effect
Stability [4]: Stable
inhibition [6]: 63%
SMILES: COc1ccc(-c2cc3cc(C(c4c[nH]c5ccccc45)c4c[nH]c5ccccc45)cc(C(C)(C)C)c3oc2=O)cc1OC
Activity [1]: Active
inhibition in vivo at 150 mg/kg [3]: 33%
Activity [5]: 22%
Activity [7]: Active
